Where a name gives a salt, the structure may show the parent alone.

Consider 54 molecules from US9776991B2, “Thienomethylpiperazine derivatives as inhibitors of soluble epoxide hydrolase” (SANOFI, priority 2013, dated 2017).

The target in the first experiment is recombinant sEH (soluble epoxide hydrolase, EPHX2) (Homo sapiens (Human), UniProt P34913). Put plainly: biochemical fluorometric sEH inhibition assay with Phome substrate. Conditions: recombinant sEH purified from Sf9 insect cells, 2 nM sEH, 5 μM Phome, 60 minutes at 30° C. On the procedure: Compounds were tested in a biochemical screening assay using recombinant sEH purified from Sf9 insect cells and an artificial substrate, (3-phenyl-oxiranyl)-acetic acid cyano-(6-methoxy-naphtalen-2-yl)-methyl ester, Phome. The biochemical assay was performed in analogy to a fluorometric described in the literature (P. D. Jones et al., Anal. Biochem. 2005, 343, 66-75). The assay principle bases on the sEH-catalyzed hydrolysis of an artificial α-cyano-ester substrate. O-deacetylation liberates a cyanohydrin intermediate that rapidly decomposes to the highly fluorescent 6-methoxy-2-naphtaldehyde. To discriminate sample autofluorescence, the assay was carried out as a kinetic measurement with two time points. The first measurement is performed immediately before addition of the substrate and the […] measurement is done after completion of the assay. The assay format is either in 96- or in 384-well format.
Sequence of recombinant sEH (soluble epoxide hydrolase, EPHX2) (P34913 whole entry): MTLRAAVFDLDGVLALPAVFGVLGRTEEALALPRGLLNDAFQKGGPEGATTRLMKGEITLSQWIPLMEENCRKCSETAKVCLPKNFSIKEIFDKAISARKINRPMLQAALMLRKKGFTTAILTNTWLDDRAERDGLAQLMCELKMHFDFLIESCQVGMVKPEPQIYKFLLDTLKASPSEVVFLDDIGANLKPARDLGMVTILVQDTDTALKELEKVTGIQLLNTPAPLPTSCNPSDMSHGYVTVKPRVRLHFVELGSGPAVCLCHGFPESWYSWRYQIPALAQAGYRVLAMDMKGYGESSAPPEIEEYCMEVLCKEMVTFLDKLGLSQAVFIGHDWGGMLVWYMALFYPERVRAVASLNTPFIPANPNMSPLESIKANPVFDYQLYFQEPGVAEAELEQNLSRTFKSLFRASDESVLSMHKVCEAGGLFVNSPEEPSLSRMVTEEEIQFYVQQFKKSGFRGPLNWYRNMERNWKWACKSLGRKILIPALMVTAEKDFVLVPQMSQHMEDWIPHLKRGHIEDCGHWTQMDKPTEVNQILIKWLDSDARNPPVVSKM
Details of the assay using a 96-well plate format are described below. 40 μl recombinant sEH enzyme and 5 μl test compound are pre-incubated for 15 minutes at 30° C. Following pre-incubation, the reaction is started by addition of 5 μl Phome. The assay mixture containing 2 nM final sEH concentration, test compound ranging in a concentration from 0.0001-10 μM and 5 μM Phome is incubated for 60 minutes at 30° C.
Fluorescence is measured with any suitable detector for instance a TECAN Safire or Tecan Ultra at […]. % inhibition of recombinant sEH activity is used for calculation of corresponding IC50 values as illustrated and described in the examples.
The NCBI gene bank reference sequence with the accession number NM_001979 for EPHX2/sEH was applied for recombinant protein production:
The following commercially available materials have been used: • Incubation reagent: 25 mM Hepes (Sigma-Aldrich, Cat. No H-3375), 0.01% bovine albumin (Sigma-Aldrich Cat. No PA9205) • Substrate: 3-Phenyl-oxiranyl)-acetic acid cyano-(6-methoxy-naphtalen-2-yl)-methyl ester, Phome (Biozol Cat. No 10003134) • Microtiter plates: 96-well plates (Greiner Cat. No 655180; Costar Cat. No 3915)
The IC50 is the concentration at which inhibition is half-maximal. For `O=C(NCc1ccc(Cl)cc1Cl)c1cnc(CN2CCN(C(=O)C3CC3)CC2)s1` [Example 171], the half-inhibitory concentration (IC50) is 15.8 nM.
On the same count and under the same terms, the result for `O=C(NCc1ccc(Cl)cc1Cl)c1ccc(CN2CCN(C(=O)c3nccc4ccccc34)CC2)s1` [Example 65] reads 1.19 nM; that for `CC(C)CCNC(=O)c1ccc(CN2CCN(C(=O)c3ccnn3C(F)F)CC2)s1` [Example 13], 2.98 nM; that for `O=C(NCc1ccc(Cl)cc1Cl)c1ccc(CN2CCN(C(=O)c3ccc(F)cc3Cl)CC2)s1` [Example 43], 2.74 nM.
On the same count and under the same terms, next, `O=C(NCc1ccccc1OC(F)(F)F)c1ccc(CN2CCN(c3nccs3)C(=O)C2)s1` [Example 47]: 2.69 nM; `CCc1oncc1C(=O)N1CCN(Cc2ccc(C(=O)NCc3ccc(Cl)cc3Cl)s2)CC1` [Example 90]: 1.43 nM.
On to `CC(C)(CO)C(=O)N1CCN(Cc2ncc(C(=O)NCc3ccc(Cl)cc3Cl)s2)CC1` [Example 176], for which the IC50 was found to be 13.4 nM.
The same measure, in the same setting: the result for `COc1ccc(CNC(=O)c2ccc(CN3CCN(c4ccccn4)CC3)s2)c(OC(F)(F)F)c1` [Example 124] reads 1.69 nM; that for `CCn1nc(C)c(Br)c1C(=O)N1CCN(Cc2ccc(C(=O)NCCC(C)C)s2)CC1` [Example 99], 1.53 nM; that for `CC(C)(O)C(=O)N1CCN(Cc2ccc(C(=O)NCc3ccccc3OC(F)(F)F)s2)CC1` [Example 123], 1.69 nM.
Same read-out and setting: next, `O=C(NCc1ccc(Cl)cc1Cl)c1cnc(CN2CCN(C(=O)CN3CCC(O)C3)CC2)s1` (stereo not drawn) [Example 211]: 90.9 nM; `O=C(NCc1ccccc1OC(F)(F)F)c1ccc(CN2CCN(C(=O)C3COCCN3)CC2)s1` (stereo not drawn) [Example 49]: 2.68 nM; `CC(C)(O)CC(=O)N1CCN(Cc2ccc(C(=O)NCc3ccccc3OC(F)(F)F)s2)CC1` [Example 128]: 1.73 nM.
Take `COc1ccc(CNC(=O)c2ccc(CN3CCn4cnnc4C3)s2)c(OC(F)(F)F)c1` [Example 104]: the IC50 came out at 2.33 nM.
Same read-out and setting: the result for `COCC1(C(=O)N2CCN(Cc3ccc(C(=O)NCc4ccccc4OC(F)(F)F)s3)CC2)CC1` [Example 68] reads 1.19 nM; that for `CCOc1ccccc1C(=O)N1CCN(Cc2ccc(C(=O)NCc3ccccc3C(F)(F)F)s2)CC1` [Example 53], 1.02 nM.
Still for that read-out and setting: the result for `O=C(NCc1ccccc1C(F)(F)F)c1ccc(CN2CCN(C(=O)C3(c4ccccc4)CC3)CC2)s1` [Example 75] reads 2.55 nM; that for `O=C(NCc1ccc(Cl)cc1Cl)c1cnc(CN2CCN(C(=O)CN3CCOC3=O)CC2)s1` [Example 193], 15.2 nM; that for `CC(C)CCNC(=O)c1ccc(CN2CCN(C(=O)[C@@H]3C[C@H]3c3ccccc3)CC2)s1` [Example 5], 0.432 nM.
On the same count and under the same terms, next, `O=C(NCc1ccccc1OC(F)(F)F)c1ccc(CN2CCN(C(=O)[C@@H]3CCC[C@@H]3O)CC2)s1` [Example 94]: 1.5 nM; `O=C(NCc1ccccc1OC(F)(F)F)c1ccc(CN2CCN(C(=O)c3cccc(O)n3)CC2)s1` [Example 132]: 2.09 nM.
As to `CCCn1nccc1CNC(=O)c1ccc(CN2CCN(C(=O)c3c(C)cc(=O)oc3C)CC2)s1` [Example 78], the IC50 is 2.54 nM.
Same read-out and setting: next, `O=C(NCc1ccccc1OC(F)(F)F)c1ccc(CN2CCN(C(=O)c3c[nH]cnc3=O)CC2)s1` [Example 107]: 2.26 nM; `CC(O)CC(=O)N1CCN(Cc2ccc(C(=O)NCc3ccccc3OC(F)(F)F)s2)CC1` (stereo not drawn) [Example 92]: 1.39 nM.
Same read-out and setting: the result for `CC(O)C(=O)N1CCN(Cc2ccc(C(=O)NCc3ccccc3OC(F)(F)F)s2)CC1` (stereo not drawn) [Example 155] reads 1.99 nM; that for `Cc1cc(C(=O)NCCC(C)(C)C)sc1CN1CCN(C(=O)c2c(C)cc(=O)oc2C)CC1` [Example 159], 0.8 nM; that for `CN1CCC[C@H]1C(=O)N1CCN(Cc2ncc(C(=O)NCc3ccc(Cl)cc3Cl)s2)CC1` [Example 184], 115 nM.
Same read-out and setting: next, `O=C(NCc1ccccc1C(F)(F)F)c1ccc(CN2CCN(C(=O)Cc3cccc(C(F)(F)F)c3)CC2)s1` [Example 31]: 0.758 nM; `O=C(NCc1ccc(Cl)cc1Cl)c1ccc(CN2CCN(c3ccc(O)nn3)CC2)s1` [Example 50]: 2.67 nM.
`O=C(NCc1ccc(Cl)cc1Cl)c1cnc(CN2CCN(C(=O)C3CCO3)CC2)s1` (stereo not drawn) [Example 208]: the 50% inhibitory concentration (IC50) worked out at 9.67 nM.
Same read-out and setting: next, `Cc1noc(C)c1C(=O)N1CCN(Cc2ccc(C(=O)NCc3ccccc3OC(F)(F)F)s2)CC1` [Example 122]: 1.74 nM; `Cc1cc(=O)oc(C)c1C(=O)N1CCN(Cc2ccc(C(=O)NCc3ccc(Cl)cc3Cl)s2)CC1` [Example 59]: 1.15 nM; `CC(C(=O)N1CCN(Cc2ncc(C(=O)NCc3ccc(Cl)cc3Cl)s2)CC1)N1CCCC1=O` (stereo not drawn) [Example 169]: 8.76 nM.
Same read-out and setting: the result for `CC1(C)SCN[C@H]1C(=O)N1CCN(Cc2ccc(C(=O)NCc3ccccc3OC(F)(F)F)s2)CC1` [Example 110] reads 2.16 nM.
The same measure, in the same setting: the result for `COc1ccc(CNC(=O)c2ccc(CN3CCN(c4ccc(CO)cn4)CC3)s2)c(OC(F)(F)F)c1` [Example 146] reads 1.94 nM; that for `O=C(NCc1ccccc1OC(F)(F)F)c1ccc(CN2CCN(C(=O)c3ccccn3)CC2)s1` [Example 121], 1.68 nM.
Consider `O=C(NCc1ccccc1OC(F)(F)F)c1ccc(CN2CCN(C(=O)C3COCCO3)CC2)s1` (stereo not drawn) [Example 147], for which the IC50 was found to be 1.96 nM.
The same measure, in the same setting: next, `COc1cc(CNC(=O)c2ccc(CN3CCN(C(=O)c4c(C)n[nH]c4C)CC3)s2)ccn1` [Example 139, 5-[4-(3,5-Dimethyl-1H-pyrazole-4-carbonyl)-piperazin-1-ylmethyl]-thiophene-2-carboxylic acid (2-methoxy-pyridin-4-ylmethyl)-amide trifluoroacetate]: 2.85 nM; `O=C(NCc1ccccc1C(F)(F)F)c1ccc(CN2CCN(C(=O)c3ccc4nccn4c3)CC2)s1` [Example 15]: 0.604 nM.
On the same count and under the same terms, next, `Cc1cc(=O)oc(C)c1C(=O)N1CCN(Cc2ncc(C(=O)NCc3ccc(Cl)cc3Cl)s2)CC1` [Example 162]: 12.2 nM; `O=C(NCc1ccccc1OC(F)(F)F)c1ccc(CN2CCN(CC(F)(F)F)C(=O)C2)s1` [Example 111]: 2.23 nM; `O=C(NCc1ccccc1OC(F)(F)F)c1ccc(CN2CCN(C(=O)C3(O)CC3)CC2)s1` [Example 37]: 0.929 nM.
On the same count and under the same terms, next, `CC(C)[C@@H](O)C(=O)N1CCN(Cc2ncc(C(=O)NCc3ccc(Cl)cc3Cl)s2)CC1` [Example 198]: 13.3 nM; `NC1(C(=O)N2CCN(Cc3ccc(C(=O)NCc4ccccc4OC(F)(F)F)s3)CC2)CC1` [Example 115, 5-[4-(1-Amino-cyclopropanecarbonyl)-piperazin-1-ylmethyl]-thiophene-2-carboxylic acid 2-trifluoromethoxy-benzylamide, trifluoroacetate]: 1.64 nM.
Take `COc1ncccc1C(=O)N1CCN(Cc2ccc(C(=O)NCc3ccc(Cl)cc3Cl)s2)CC1` [Example 7]: the IC50 stood at 0.524 nM.
Same read-out and setting: the result for `O=C(NCc1ccccc1OC(F)(F)F)c1ccc(CN2CCN(c3ccc(O)nn3)CC2)s1` [Example 136] reads 2.13 nM; that for `Cn1ncc(N2CCN(Cc3ccc(C(=O)NCc4ccc(Cl)cc4Cl)s3)CC2)cc1=O` [Example 108], 2.15 nM; that for `O=C(NCc1ccccc1OC(F)(F)F)c1ccc(CN2CCN(C(=O)N3CCCC3)CC2)s1` [Example 19], 0.695 nM.
For `Cc1cc(=O)oc(C)c1C(=O)N1CCN(Cc2ccc(C(=O)NCc3ccc(C(F)(F)F)cc3)s2)CC1` [Example 33], the IC50 is 0.906 nM.
With `O=C(NCc1ccccc1OC(F)(F)F)c1ccc(CN2CCN(C3CCS(=O)(=O)C3)CC2)s1` (stereo not drawn) [Example 85], the IC50 stood at 2.44 nM.
The same measure, in the same setting: next, `O=C(NCc1ccc(Cl)cc1Cl)c1cnc(CN2CCN(C(=O)C3CCOC3)CC2)s1` (stereo not drawn) [Example 183]: 18.8 nM.
On the same count and under the same terms, the result for `O=C(NCc1ccccc1OC(F)(F)F)c1ccc(CN2CCN(C(=O)CN3CCOC3=O)CC2)s1` [Example 156] reads 2 nM; that for `COc1ccc(CNC(=O)c2ccc(CN3CCN(c4ccc(O)nn4)CC3)s2)c(OC(F)(F)F)c1` [Example 22], 2.8 nM.

The experiment is the same for the next values; noted with them: recombinant sEH purified from Sf9 insect cells, 2 nM sEH, 5 μM Phome, 60 minutes at 30° C.; trifluoroacetate.
Take `CC(O)C(=O)N1CCN(Cc2ccc(C(=O)NCc3ccccc3OC(F)(F)F)s2)CC1` (stereo not drawn) [Example 54, 5-[4-(2-Hydroxy-propionyl)-piperazin-1-ylmethyl]-thiophene-2-carboxylic acid 2-trifluoromethoxy-benzylamide, trifluoroacetate]: the IC50 was 0.976 nM.
